PubChem BioAssay AID2060884 (Molecular Pharmacology Branch, DTP, NCI, 2025)

Tested on: NCI-H929 complex spheroids, viability % test/control
Experiment: Anticancer human tumor NCI-H929 cell line growth inhibition [RAS];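 note: compound exposure lasted seven days before viability was read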;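 for viability, T/C: 100% = DMSO vehicle control viability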
Details: for IC50: curve of first compound; for viability, T/C: stronger effect = lower value
Outline: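 Multi-cell-type spheroids: tumor cells plus HUVEC endothelial cells and mesenchymal stem cells. RAS-pathway inhibitors were combined with targeted agents, each dosed in half-log steps down from clinical Cmax, or from 10 microM when Cmax was unknown.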

SMILES: CC1(C)CCC(Nc2ncc(C(F)(F)F)c(-c3c[nH]c4c(P(C)(C)=O)c(C#N)ccc34)n2)CN1 (stereo unspecified) + CCn1c(-c2cc(N3CCN(C)CC3)cnc2C(C)OC)c2c3cc(ccc31)-c1csc(n1)CC(NC(=O)C1CC1C)C(=O)N1CCCC(N1)C(=O)OCC(C)(C)C2
- IC50 (second compound 0.000949 µM): 2.23 nM
- IC50 (second compound 0.003 µM): 2.53 nM
- IC50 (second compound 0.00949 µM): 1.94 nM
- IC50 (second compound 0.03 µM): < 0.949 nM
- IC50 (second compound 0.0949 µM): < 0.949 nM
- IC50 (second compound 0.3 µM): < 0.949 nM
- viability, T/C (second compound 0.000949 µM, first compound 0.000949 µM): 116%
- viability, T/C (second compound 0.000949 µM, first compound 0.003 µM): 26.9%
- viability, T/C (second compound 0.000949 µM, first compound 0.00949 µM): 8.16%
- viability, T/C (second compound 0.000949 µM, first compound 0.03 µM): 6.16%
- viability, T/C (second compound 0.000949 µM, first compound 0.0949 µM): 4.71%
- viability, T/C (second compound 0.000949 µM, first compound 0.3 µM): 3.65%
- viability, T/C (second compound 0.003 µM, first compound 0.000949 µM): 112%
- viability, T/C (second compound 0.003 µM, first compound 0.003 µM): 39.4%
- viability, T/C (second compound 0.003 µM, first compound 0.00949 µM): 10.1%
- viability, T/C (second compound 0.003 µM, first compound 0.03 µM): 7.4%
- viability, T/C (second compound 0.003 µM, first compound 0.0949 µM): 5.4%
- viability, T/C (second compound 0.003 µM, first compound 0.3 µM): 4.64%
- viability, T/C (second compound 0.00949 µM, first compound 0.000949 µM): 91.8%
- viability, T/C (second compound 0.00949 µM, first compound 0.003 µM): 24.4%
- viability, T/C (second compound 0.00949 µM, first compound 0.00949 µM): 8.42%
- viability, T/C (second compound 0.00949 µM, first compound 0.03 µM): 5.44%
- viability, T/C (second compound 0.00949 µM, first compound 0.0949 µM): 5.01%
- viability, T/C (second compound 0.00949 µM, first compound 0.3 µM): 4.22%
- viability, T/C (second compound 0.03 µM, first compound 0.000949 µM): 16.8%
- viability, T/C (second compound 0.03 µM, first compound 0.003 µM): 5.53%
- viability, T/C (second compound 0.03 µM, first compound 0.00949 µM): 2.91%
- viability, T/C (second compound 0.03 µM, first compound 0.03 µM): 2.43%
- viability, T/C (second compound 0.03 µM, first compound 0.0949 µM): 1.95%
- viability, T/C (second compound 0.03 µM, first compound 0.3 µM): 1.14%
- viability, T/C (second compound 0.0949 µM, first compound 0.000949 µM): 2.94%
- viability, T/C (second compound 0.0949 µM, first compound 0.003 µM): 1.38%
- viability, T/C (second compound 0.0949 µM, first compound 0.00949 µM): 1.46%
- viability, T/C (second compound 0.0949 µM, first compound 0.03 µM): 0.67%
- viability, T/C (second compound 0.0949 µM, first compound 0.0949 µM): 0.66%
- viability, T/C (second compound 0.0949 µM, first compound 0.3 µM): 0.53%
- viability, T/C (second compound 0.3 µM, first compound 0.000949 µM): 1.65%
- viability, T/C (second compound 0.3 µM, first compound 0.003 µM): 0.63%
- viability, T/C (second compound 0.3 µM, first compound 0.00949 µM): 0.85%
- viability, T/C (second compound 0.3 µM, first compound 0.03 µM): 1.47%
- viability, T/C (second compound 0.3 µM, first compound 0.0949 µM): 0.57%
- viability, T/C (second compound 0.3 µM, first compound 0.3 µM): 0.6%

SMILES: CC(=O)OC12COC1CC(O)C1(C)C(=O)C(O)C3=C(C)C(OC(=O)C(O)C(NC(=O)OC(C)(C)C)c4ccccc4)CC(O)(C(OC(=O)c4ccccc4)C21)C3(C)C (stereo unspecified) + C=CC(=O)N1CCN(c2nc(OCC3CCCN3C)nc3c(F)c(-c4nc(N)cc(C)c4C(F)(F)F)c(Cl)cc23)C(C)C1
- IC50 (second compound 0.00316 µM): < 31.6 nM
- IC50 (second compound 0.01 µM): < 31.6 nM
- IC50 (second compound 0.0316 µM): < 31.6 nM
- IC50 (second compound 0.1 µM): < 31.6 nM
- IC50 (second compound 0.316 µM): < 31.6 nM
- IC50 (second compound 1 µM): < 31.6 nM
- viability, T/C (second compound 0.00316 µM, first compound 0.0316 µM): 0.81%
- viability, T/C (second compound 0.00316 µM, first compound 0.1 µM): 0.73%
- viability, T/C (second compound 0.00316 µM, first compound 0.316 µM): 1.35%
- viability, T/C (second compound 0.00316 µM, first compound 1 µM): 2.03%
- viability, T/C (second compound 0.00316 µM, first compound 3.16 µM): 1.42%
- viability, T/C (second compound 0.00316 µM, first compound 10 µM): 1.11%
- viability, T/C (second compound 0.01 µM, first compound 0.0316 µM): 1.77%
- viability, T/C (second compound 0.01 µM, first compound 0.1 µM): 0.94%
- viability, T/C (second compound 0.01 µM, first compound 0.316 µM): 1.67%
- viability, T/C (second compound 0.01 µM, first compound 1 µM): 1.93%
- viability, T/C (second compound 0.01 µM, first compound 3.16 µM): 1.54%
- viability, T/C (second compound 0.01 µM, first compound 10 µM): 1.19%
- viability, T/C (second compound 0.0316 µM, first compound 0.0316 µM): 1.41%
- viability, T/C (second compound 0.0316 µM, first compound 0.1 µM): 1.13%
- viability, T/C (second compound 0.0316 µM, first compound 0.316 µM): 1.31%
- viability, T/C (second compound 0.0316 µM, first compound 1 µM): 1.79%
- viability, T/C (second compound 0.0316 µM, first compound 3.16 µM): 1.72%
- viability, T/C (second compound 0.0316 µM, first compound 10 µM): 0.97%
- viability, T/C (second compound 0.1 µM, first compound 0.0316 µM): 2.46%
- viability, T/C (second compound 0.1 µM, first compound 0.1 µM): 1.76%
- viability, T/C (second compound 0.1 µM, first compound 0.316 µM): 0.8%
- viability, T/C (second compound 0.1 µM, first compound 1 µM): 2.06%
- viability, T/C (second compound 0.1 µM, first compound 3.16 µM): 1.88%
- viability, T/C (second compound 0.1 µM, first compound 10 µM): 1.11%
- viability, T/C (second compound 0.316 µM, first compound 0.0316 µM): 0.97%
- viability, T/C (second compound 0.316 µM, first compound 0.1 µM): 1.22%
- viability, T/C (second compound 0.316 µM, first compound 0.316 µM): 0.89%
- viability, T/C (second compound 0.316 µM, first compound 1 µM): 2.24%
- viability, T/C (second compound 0.316 µM, first compound 3.16 µM): 1.05%
- viability, T/C (second compound 0.316 µM, first compound 10 µM): 1.06%
- viability, T/C (second compound 1 µM, first compound 0.0316 µM): 2.41%
- viability, T/C (second compound 1 µM, first compound 0.1 µM): 1.89%
- viability, T/C (second compound 1 µM, first compound 0.316 µM): 1.45%
- viability, T/C (second compound 1 µM, first compound 1 µM): 0.87%
- viability, T/C (second compound 1 µM, first compound 3.16 µM): 1.43%
- viability, T/C (second compound 1 µM, first compound 10 µM): 1.17%

SMILES: CC(C)n1nc(-c2ccc3oc(N)nc3c2)c2c(N)ncnc21 + CCn1c(-c2cc(N3CCN(C)CC3)cnc2C(C)OC)c2c3cc(ccc31)-c1csc(n1)CC(NC(=O)C1CC1C)C(=O)N1CCCC(N1)C(=O)OCC(C)(C)C2
- IC50 (second compound 0.000949 µM): 55 nM
- IC50 (second compound 0.003 µM): 55 nM
- IC50 (second compound 0.00949 µM): 29.2 nM
- IC50 (second compound 0.03 µM): 2.58 nM
- IC50 (second compound 0.0949 µM): < 0.316 nM
- IC50 (second compound 0.3 µM): < 0.316 nM
- viability, T/C (second compound 0.000949 µM, first compound 0.000316 µM): 103%
- viability, T/C (second compound 0.000949 µM, first compound 0.001 µM): 101%
- viability, T/C (second compound 0.000949 µM, first compound 0.00316 µM): 111%
- viability, T/C (second compound 0.000949 µM, first compound 0.01 µM): 110%
- viability, T/C (second compound 0.000949 µM, first compound 0.0316 µM): 93.2%
- viability, T/C (second compound 0.000949 µM, first compound 0.1 µM): 3.1%
- viability, T/C (second compound 0.003 µM, first compound 0.000316 µM): 97.5%
- viability, T/C (second compound 0.003 µM, first compound 0.001 µM): 95.7%
- viability, T/C (second compound 0.003 µM, first compound 0.00316 µM): 101%
- viability, T/C (second compound 0.003 µM, first compound 0.01 µM): 114%
- viability, T/C (second compound 0.003 µM, first compound 0.0316 µM): 93%
- viability, T/C (second compound 0.003 µM, first compound 0.1 µM): 3.74%
- viability, T/C (second compound 0.00949 µM, first compound 0.000316 µM): 108%
- viability, T/C (second compound 0.00949 µM, first compound 0.001 µM): 114%
- viability, T/C (second compound 0.00949 µM, first compound 0.00316 µM): 119%
- viability, T/C (second compound 0.00949 µM, first compound 0.01 µM): 120%
- viability, T/C (second compound 0.00949 µM, first compound 0.0316 µM): 45.1%
- viability, T/C (second compound 0.00949 µM, first compound 0.1 µM): 1.87%
- viability, T/C (second compound 0.03 µM, first compound 0.000316 µM): 74.5%
- viability, T/C (second compound 0.03 µM, first compound 0.001 µM): 74.2%
- viability, T/C (second compound 0.03 µM, first compound 0.00316 µM): 39.7%
- viability, T/C (second compound 0.03 µM, first compound 0.01 µM): 26.1%
- viability, T/C (second compound 0.03 µM, first compound 0.0316 µM): 4.36%
- viability, T/C (second compound 0.03 µM, first compound 0.1 µM): 0.46%
- viability, T/C (second compound 0.0949 µM, first compound 0.000316 µM): 7.99%
- viability, T/C (second compound 0.0949 µM, first compound 0.001 µM): 7.3%
- viability, T/C (second compound 0.0949 µM, first compound 0.00316 µM): 2.87%
- viability, T/C (second compound 0.0949 µM, first compound 0.01 µM): 1.59%
- viability, T/C (second compound 0.0949 µM, first compound 0.0316 µM): 0.69%
- viability, T/C (second compound 0.0949 µM, first compound 0.1 µM): 0.3%
- viability, T/C (second compound 0.3 µM, first compound 0.000316 µM): 3.49%
- viability, T/C (second compound 0.3 µM, first compound 0.001 µM): 2.63%
- viability, T/C (second compound 0.3 µM, first compound 0.00316 µM): 1.48%
- viability, T/C (second compound 0.3 µM, first compound 0.01 µM): 0.92%
- viability, T/C (second compound 0.3 µM, first compound 0.0316 µM): 0.47%
- viability, T/C (second compound 0.3 µM, first compound 0.1 µM): 0.34%
